Consider three molecules from patent US10761045B2, “Sensor, sensor system, method of manufacturing sensor, and method of measuring concentration of target substance” (PHC Holdings Corporation, priority 2010, dated 2020).

Data set [1] can be described thus: Redox / oxidation potentials stated in the description. It counts as physicochemical.
The nature of data set [2]: Storage stability of reagent solution (response current of sensors made with stored vs fresh reagent solution). It counts as physicochemical. The settings on record: additive in reagent solution C composition (PQSA, FAD-GDH); additive conc. 1.0-5.0 mM. From the text:
A sensor having the configuration illustrated in FIG. 1 was manufactured. The detailed procedure will now be described. First, by sputtering palladium, 8 nm-thick conductive layer 3 was deposited on substrate 2 which was 30 mm in length, 7 mm in width and 0.2 mm in thickness and which contained polyethylene terephthalate as its main component. Thereafter, a 0.1 mm-width non-conductive track was formed by laser ablation, to form electrodes 31 to 33. Electrode 31 was designed to function as a working electrode, electrode 32 as a counter electrode, and electrode 33 as a sensing electrode.
Using a microsyringe, 1.2 μL of each reagent solution was applied to form reagent layer 4 in a shape of 2.2 mm diameter-circular. After formation of reagent layer 4, spacer 5 (0.145 mm thick) having a cut-out with a length of 3.4 mm a width of 1.2 mm and cover 6 were sequentially attached to the substrate having the electrodes formed thereon. In this way a sensor was manufactured that has a capillary having a volume of 0.6 μL. […]
Response current values of each sensor were measured using a series of glucose solutions of known concentrations.
By adding as an additive imidazole, histamine, histidine, 2-aminoimidazole, 4,5-bis(hydroxymethyl)imidazole, 1,2,4-triazole, 3-amino-1,2,4-triazole, 4-amino-1,2,4-triazole, 3,5-diamino-1,2,4-triazole, 2-methylimidazole, or 1,2-dimethylimidazole, reagent solutions were prepared that contain the same composition as reagent solution C except the type and concentration of the additive. The concentrations of the additives are as indicated in Tables below and the accompanying drawings.
Further, sensors were manufactured using the same reagent solutions stored at 25° C. and 5% humidity for 24 hours after preparation. […]

Data set [3] in a line: Cyclic voltammetry of reagent solutions A and B (PQSA, FAD-GDH, with or without imidazole). Format: physicochemical. Here is the method:
Reagent solutions A and B having the following compositions were prepared.
Additive: Imidazole (structural formula is illustrated below) (7.5 mM)
Electron acceptor: PQSA (7.5 mM)
Enzyme: FAD dependent-glucose dehydrogenase (FAD-GDH) 3.5 MU/L (liter)
Buffer solution: 100 mM sodium phosphate buffer solution (pH 7.0)
Reagent solution B has the same composition as reagent solution A except the absence of imidazole.
First, by sputtering palladium, 8 nm-thick conductive layer 3 was deposited on substrate 2 which was 30 mm in length, 7 mm in width and 0.2 mm in thickness and which contained polyethylene terephthalate as its main component. Thereafter, a 0.1 mm-width non-conductive track was formed by laser ablation, to form electrodes 31 to 33. Electrode 31 corresponds to a working electrode, and electrode 32 to a counter electrode. Spacer 5 (0.145 mm thick) having a cut-out with a length of 3.4 mm and a width of 1.2 mm and cover 6 were sequentially attached to the substrate having the electrodes formed thereon. In this way a sensor electrode was manufactured that has capillary 51 with a volume of 0.6 μL.
Cyclic voltammetry was performed for the resultant reagent solution using the aforementioned sensor electrode. As a reference electrode, a silver/silver chloride (saturated potassium chloride) electrode (hereinafter “Ag|AgCl”) was used. […]

Data set [4] in a line: Stability test (exposure test) of sensor at 30° C., 80% humidity. The note with it: additive in reagent layer; additive conc. 1.0-5.0 mM.
Method: Sensors were manufactured in the same manner as described in section [1-5] using the reagent solutions prepared above. The sensors manufactured were exposed to an environment of high temperature and humidity (30° C., 80% relative humidity) for 24 hours. Response current values of the pre- and post-exposed sensors were measured for a series of glucose solutions of known concentrations.
Sensors were manufactured using fresh reagent solutions having the same compositions as described above. The sensors were subjected to an exposure experiment where they were allowed to stand for 24 hours at 30° C. and 80% humidity. Response current values of non-exposed sensors (i.e., sensors stored under the ambient condition (25° C., 5% humidity) for 24 hours) and the exposed sensors were measured for a series of glucose solutions of known concentrations.

As for `O=C1C(=O)c2cc(S(=O)(=O)O)ccc2-c2ccccc21` [9,10-phenanthrenequinone-2-sulfonic acid], the “redox potential of exemplary electron acceptors” value in data set [1] is listed as −140 mV.

With `O=C1C(=O)c2ccccc2-c2ccccc21` [9,10-phenanthrenequinone], in data set [1], the “redox potential of exemplary electron acceptors” value is given as −180 mV.

For Imidazole, the “Reagent solution stability % change in response current value between before and after 24 hours storage at 25° C.” value in data set [2] is on record as −1%. Moreover, in data set [3] (21 hours at 25° C. and 5% relative humidity, FIG. 4), the “shift of the peak oxidation potential of PQSA after storage of reagent solution” value is on record as “positive shift of the peak oxidation potential was limited”. Further, in data set [3] (imidazole 7.5 mM, PQSA 7.5 mM, FAD-GDH, pH 7.0, FIG. 4 vs FIG. 5), the “shift of the peak potential of PQSA on addition of additive” value was “negative shift”. For the same molecule, in data set [4], the “Sensor stability % change in response current value between before and after 24 hours exposure at 30° C. and 80% humidity” value is on record as −50%.
